What was measured:
EGFR (del19/T790M/C797S) = assay: HTRF inhibitory activity assay against EGFR (del19/T790M/C797S) enzyme; format: biochemical
How it was run: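 Wild-type or mutant EGFR preincubated with serially diluted compound 10 min at 28 °C, then reacted 40 min at room temperature with biotinylated TK substrate and ATP. Phosphorylation detected by HTRF (Eu-cryptate anti-TK antibody, streptavidin-XL665, 60 min), 665/615 nm ratio; % inhibition and IC50 vs control.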

EGFR (L858R/T790M/C797S) = EGFR (L858R/T790M/C797S) (Homo sapiens, UniProt P00533, C797S/L858R/T790M); assay: HTRF inhibitory activity assay against EGFR (L858R/T790M/C797S) enzyme; format: biochemical; details: read-out: EGFR (L858R/T790M/C797S) inhibition (%) (0.3 nM compound)
Chain of EGFR (L858R/T790M/C797S) (P00533 25-1210 T790M/C797S/L858R): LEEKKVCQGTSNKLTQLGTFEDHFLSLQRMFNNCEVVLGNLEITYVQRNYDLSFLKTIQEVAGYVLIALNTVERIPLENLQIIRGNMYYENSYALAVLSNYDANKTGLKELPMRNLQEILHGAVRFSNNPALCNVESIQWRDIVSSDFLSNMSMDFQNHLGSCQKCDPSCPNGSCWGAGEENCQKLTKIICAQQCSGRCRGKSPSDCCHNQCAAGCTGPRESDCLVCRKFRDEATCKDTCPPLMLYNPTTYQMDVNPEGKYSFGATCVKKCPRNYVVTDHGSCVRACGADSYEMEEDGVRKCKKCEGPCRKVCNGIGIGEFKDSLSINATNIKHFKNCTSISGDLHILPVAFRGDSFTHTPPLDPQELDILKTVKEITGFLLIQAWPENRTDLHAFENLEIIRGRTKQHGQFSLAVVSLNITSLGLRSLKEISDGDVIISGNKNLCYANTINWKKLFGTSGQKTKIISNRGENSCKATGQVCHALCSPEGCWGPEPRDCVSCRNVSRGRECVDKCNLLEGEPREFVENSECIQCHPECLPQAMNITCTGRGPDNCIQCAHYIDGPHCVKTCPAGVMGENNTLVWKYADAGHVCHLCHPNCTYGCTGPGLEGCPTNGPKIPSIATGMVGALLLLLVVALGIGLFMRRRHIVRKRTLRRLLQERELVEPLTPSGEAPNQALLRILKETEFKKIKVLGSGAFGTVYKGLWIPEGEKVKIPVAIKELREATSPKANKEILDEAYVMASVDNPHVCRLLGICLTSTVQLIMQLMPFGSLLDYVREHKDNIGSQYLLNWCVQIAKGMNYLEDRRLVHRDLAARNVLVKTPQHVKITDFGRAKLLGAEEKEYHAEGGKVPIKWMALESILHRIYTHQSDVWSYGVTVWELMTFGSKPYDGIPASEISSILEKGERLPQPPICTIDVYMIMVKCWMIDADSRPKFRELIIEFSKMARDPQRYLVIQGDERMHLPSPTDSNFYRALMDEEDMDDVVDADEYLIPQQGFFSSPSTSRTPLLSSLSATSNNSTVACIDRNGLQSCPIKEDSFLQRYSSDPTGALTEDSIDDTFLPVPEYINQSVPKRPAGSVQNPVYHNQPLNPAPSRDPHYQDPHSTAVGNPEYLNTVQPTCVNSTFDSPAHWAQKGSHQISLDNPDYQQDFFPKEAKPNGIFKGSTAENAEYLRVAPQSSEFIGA
Experimental: (§1) Inhibitory Activity Assay of the Compounds Disclosed Herein Against EGFR (del19/T790M/C797S), EGFR (L858R/T790M/C797S) or EGFR (WT) Enzymes
(§2) The inhibitory effects of the compounds against EGFR (del19/T790M/C797S), EGFR (L858R/T790M/C797S) or EGFR (WT) enzyme activity was determined by using HTRF. The procedures are as follows:
(§3) The WT or mutant EGFR proteins were incubated with a serially diluted compounds at 28° C. for 10 min followed by addition of biotin-labeled general tyrosine kinase (TK) substrate and ATP. The mixture was incubated at room temperature for 40 min for reaction. After the termination of the reaction, an Eu3+-Cryptate-labeled antibody against TK and streptavidin-XL665 were added and the mixture was incubated at room temperature for 60 min. The luminescences at 615 nm and 665 nm were detected and the ratio of 665/615 was calculated to quantify the level of TK substrate phosphorylation. Inhibition % and IC50 of the compounds were calculated relative to the control group.

[1] = target: Ba/F3 (EGFR^del19/T790M/C797S) triple-mutant cells (Homo sapiens, UniProt P00533, T790M/C797S, cells depend on it, form not given); assay: Antiproliferative activity against Ba/F3 (EGFR del19/T790M/C797S) triple-mutant cells, Cell Titer Glow; format: cell-based; details: three days after addition of compounds; read-out: Antiproliferative activity BaF3(EGFR^del19/T790M/C797S) IC50
Chain of Ba/F3 (EGFR^del19/T790M/C797S) triple-mutant cells (P00533 with tags, fused parts or gaps DEL746-750/T790M/C797S, form open): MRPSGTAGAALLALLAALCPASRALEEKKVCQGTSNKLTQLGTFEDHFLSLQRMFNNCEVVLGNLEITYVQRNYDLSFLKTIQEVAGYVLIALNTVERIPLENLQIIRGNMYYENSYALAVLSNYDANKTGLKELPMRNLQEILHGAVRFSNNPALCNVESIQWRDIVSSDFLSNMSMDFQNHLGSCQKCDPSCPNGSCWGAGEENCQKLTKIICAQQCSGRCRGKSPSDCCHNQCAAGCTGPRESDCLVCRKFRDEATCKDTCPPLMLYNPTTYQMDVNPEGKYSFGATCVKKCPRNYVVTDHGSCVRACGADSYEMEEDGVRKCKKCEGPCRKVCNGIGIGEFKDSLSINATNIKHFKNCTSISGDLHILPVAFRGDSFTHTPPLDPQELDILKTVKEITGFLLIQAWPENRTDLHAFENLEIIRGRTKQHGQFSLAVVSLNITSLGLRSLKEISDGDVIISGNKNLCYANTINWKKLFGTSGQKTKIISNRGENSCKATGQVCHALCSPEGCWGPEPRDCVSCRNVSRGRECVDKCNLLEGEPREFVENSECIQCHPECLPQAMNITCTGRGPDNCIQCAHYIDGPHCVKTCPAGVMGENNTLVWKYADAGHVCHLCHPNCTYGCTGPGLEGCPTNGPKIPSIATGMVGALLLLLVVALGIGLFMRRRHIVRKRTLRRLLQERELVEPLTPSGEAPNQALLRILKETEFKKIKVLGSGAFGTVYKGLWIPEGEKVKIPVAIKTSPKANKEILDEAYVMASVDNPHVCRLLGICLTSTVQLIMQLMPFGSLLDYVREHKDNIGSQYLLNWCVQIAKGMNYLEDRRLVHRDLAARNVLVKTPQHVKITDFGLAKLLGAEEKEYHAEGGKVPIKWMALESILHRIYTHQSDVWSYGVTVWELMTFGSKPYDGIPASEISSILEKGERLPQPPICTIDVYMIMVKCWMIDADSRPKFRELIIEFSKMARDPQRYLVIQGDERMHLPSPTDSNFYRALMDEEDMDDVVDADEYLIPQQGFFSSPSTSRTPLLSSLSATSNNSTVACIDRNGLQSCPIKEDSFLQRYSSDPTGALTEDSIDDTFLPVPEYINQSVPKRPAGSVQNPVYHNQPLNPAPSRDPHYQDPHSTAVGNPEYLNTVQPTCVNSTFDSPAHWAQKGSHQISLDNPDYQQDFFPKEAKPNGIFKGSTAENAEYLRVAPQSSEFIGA
Experimental: (§4) Antiproliferative Activity of the Compounds Disclosed Herein Against Ba/F3 (EGFR^del19/T790M/C797S) Triple-Mutant Cells and A431 (EGFR WT) Cells
(§5) • 3000 Ba/F3 cells carrying EGFR (del19/T790M/C797S) or 2000 A431 cells were seeded in a 384-well plate. After one day, serially diluted compounds were added (up to 500 nM for Ba/F3 cells and up to 10 μM for A431 cells). Three days after the addition of the compounds, Cell Titer Glow was added to evaluate cell growth and the percentage cell growth inhibition by the compounds and the IC50 values were calculated.

A431 (EGFR WT) cells = assay: Antiproliferative activity against A431 (EGFR WT) cells, Cell Titer Glow; format: cell-based; details: Homo sapiens, A-431, 72 h; three days after addition of compounds; read-out: Antiproliferative activity A431 wild-type (WT) IC50
Experimental: as §4, §5

EGFR (WT) = EGFR (WT) (Homo sapiens, UniProt P00533); assay: HTRF inhibitory activity assay against EGFR (WT) enzyme; format: biochemical
Chain of EGFR (WT) (P00533 25-1210): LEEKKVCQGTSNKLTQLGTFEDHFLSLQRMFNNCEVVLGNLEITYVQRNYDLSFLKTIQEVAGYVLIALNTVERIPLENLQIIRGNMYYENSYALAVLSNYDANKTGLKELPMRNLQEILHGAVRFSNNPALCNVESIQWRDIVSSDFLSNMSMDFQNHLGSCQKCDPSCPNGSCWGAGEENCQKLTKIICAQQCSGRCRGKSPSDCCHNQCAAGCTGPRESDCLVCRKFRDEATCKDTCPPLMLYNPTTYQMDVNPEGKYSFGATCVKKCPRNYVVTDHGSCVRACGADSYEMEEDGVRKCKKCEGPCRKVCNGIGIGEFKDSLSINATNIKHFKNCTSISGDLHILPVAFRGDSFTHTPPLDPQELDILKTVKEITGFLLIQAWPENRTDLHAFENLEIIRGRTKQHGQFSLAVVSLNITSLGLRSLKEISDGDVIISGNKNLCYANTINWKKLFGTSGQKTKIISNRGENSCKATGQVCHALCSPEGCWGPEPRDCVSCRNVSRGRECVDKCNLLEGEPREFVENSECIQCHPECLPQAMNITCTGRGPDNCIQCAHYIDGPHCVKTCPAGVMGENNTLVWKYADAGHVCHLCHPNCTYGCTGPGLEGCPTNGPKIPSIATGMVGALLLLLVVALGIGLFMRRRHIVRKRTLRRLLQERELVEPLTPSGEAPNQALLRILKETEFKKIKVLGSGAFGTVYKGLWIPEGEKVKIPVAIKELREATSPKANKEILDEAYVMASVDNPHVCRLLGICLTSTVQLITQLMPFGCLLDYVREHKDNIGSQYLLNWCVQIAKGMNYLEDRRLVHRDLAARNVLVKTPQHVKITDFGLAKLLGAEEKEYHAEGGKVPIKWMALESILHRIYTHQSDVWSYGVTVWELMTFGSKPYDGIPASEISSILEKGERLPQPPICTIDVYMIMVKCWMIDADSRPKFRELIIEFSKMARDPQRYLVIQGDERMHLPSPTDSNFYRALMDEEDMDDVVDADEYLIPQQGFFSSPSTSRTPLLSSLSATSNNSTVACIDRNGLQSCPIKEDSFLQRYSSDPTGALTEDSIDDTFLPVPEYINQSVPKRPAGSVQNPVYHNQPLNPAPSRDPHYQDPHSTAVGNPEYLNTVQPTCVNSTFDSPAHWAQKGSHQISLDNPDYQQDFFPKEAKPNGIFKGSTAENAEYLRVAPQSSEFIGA
Experimental: as §1, §2, §3

Row | SMILES | EGFR (del19/T790M/C797S) inhibition (%) (0.3 nM compound) (EGFR (del19/T790M/C797S)) | inhibition at 0.0003 µM (EGFR (L858R/T790M/C797S)) [%] | GI50 [1] [nM] | IC50 (A431 (EGFR WT) cells) [nM] | IC50 (EGFR (WT)) [nM]
1 | CN1CCN(C2CCN(c3ccc(Nc4nc(N[C@@H]5CC[C@@H](O)C5)c(-c5ccccc5)nc4C(N)=O)cc3)CC2)CC1 [compound 137, 5-(((1R,3R)-3-hydroxycyclopentyl)amino)-3-((4-(4-(4-methylpiperazin-1-yl)piperidin-1-yl)phenyl)amino)-6-phenylpyrazine-2-carboxamide] | ++ (++ indicates an inhibition from 20% to 50%) | 20 to 50 | – | – | –
2 | CN1CCN(C2CCN(c3ccc(Nc4nc(NC5CCOCC5)c(-c5cccc6[nH]ccc56)nc4C(N)=O)cc3F)CC2)CC1 [compound 519] | +++ (+++ indicates an inhibition greater than 50%.) | > 50 | – | – | –
3 | COc1ccncc1-c1nc(C(N)=O)c(Nc2ccc(N3CCC(N4CCN(C)CC4)CC3)cc2)nc1NC1CCOCC1 [compound 83] | ++ (++ indicates an inhibition from 20% to 50%) | 20 to 50 | 233 | 750 | –
4 | CN1CCN(C2CCN(c3ccc(Nc4nc(NC5CCOCC5)c(-c5ccccc5C#N)nc4C(N)=O)cc3)CC2)CC1 [compound 52] | +++ (+++ indicates an inhibition greater than 50%.) | – | – | – | > 300
5 | CN1CCN(C2CCN(c3ccc(Nc4nc(N[C@H]5CC[C@H](O)CC5)c(-c5cccc6[nH]ccc56)nc4C(N)=O)cc3F)CC2)CC1 [compound 535] | +++ (+++ indicates an inhibition greater than 50%.) | > 50 | – | – | –
6 | CN1CCN(C2CCN(c3ccc(Nc4nc(N[C@H]5CC[C@H](O)CC5)c(-c5ccccc5)nc4C(N)=O)cc3)CC2)CC1 [compound 23] | ++ (++ indicates an inhibition from 20% to 50%) | ≤ 20 | 36 | 950 | –
7 | CN1CCN(C2CCN(c3ccc(Nc4nc(NC5CCC5)c(-c5cccc6[nH]ccc56)nc4C(N)=O)cc3F)CC2)CC1 [compound 532] | +++ (+++ indicates an inhibition greater than 50%.) | > 50 | – | – | –
8 | CN1CCN(C2CCN(c3ccc(Nc4nc(NC5CC6(COC6)C5)c(-c5cccc6[nH]ccc56)nc4C(N)=O)cc3F)CC2)CC1 [compound 536] | +++ (+++ indicates an inhibition greater than 50%.) | > 50 | – | – | –
9 | Cc1cc(Nc2nc(NC3CCOCC3)c(-c3ccncc3)nc2C(N)=O)ccc1N1CCC(N2CCN(C)CC2)CC1 [compound 114] | ++ (++ indicates an inhibition from 20% to 50%) | > 50 | 27 | 970 | –
10 | CO[C@H]1C[C@H](Nc2nc(Nc3ccc(N4CCC(N5CCN(C)CC5)CC4)cc3)c(C(N)=O)nc2-c2ccccc2)C1 [compound 125] | ++ (++ indicates an inhibition from 20% to 50%) | 20 to 50 | 99 | 650 | –
11 | CN1CCN(C2CCN(c3ccc(Nc4nc(NC5CCCC5)c(-c5cccc6[nH]ccc56)nc4C(N)=O)cc3)CC2)CC1 [compound 524] | +++ (+++ indicates an inhibition greater than 50%.) | > 50 | – | – | –
12 | CN1CCN(C2CCN(c3ccc(Nc4nc(NC5CCC5)c(-c5cccc6[nH]ccc56)nc4C(N)=O)cc3)CC2)CC1 [compound 523] | +++ (+++ indicates an inhibition greater than 50%.) | > 50 | – | – | –
13 | CN1CCN(C2CCN(c3ccc(Nc4nc(NC5CCOCC5)c(-c5cccs5)nc4C(N)=O)cc3)CC2)CC1 [compound 94] | ++ (++ indicates an inhibition from 20% to 50%) | ≤ 20 | – | – | –
14 | CN1CCN(C2CCN(c3ccc(Nc4nc(N(C)C)c(-c5ccccc5)nc4C(N)=O)cc3)CC2)CC1 [compound 10] | ++ (++ indicates an inhibition from 20% to 50%) | – | – | – | > 300
15 | CN1CCN(C2CCN(c3ccc(Nc4nc(NC5CCOCC5)c(-c5ccco5)nc4C(N)=O)cc3)CC2)CC1 [compound 69] | + (+ indicates an inhibition less than or equal to 20%) | ≤ 20 | – | – | –
16 | CN1CCN(C2CCN(c3ccc(Nc4nc(O[C@H]5CCN(C)C5)c(-c5ccccc5)nc4C(N)=O)cc3)CC2)CC1 [compound 2] | + (+ indicates an inhibition less than or equal to 20%) | – | – | – | > 100
17 | CN1CCN(C2CCN(c3ccc(Nc4nc(NC5COC5)c(-c5cccc6[nH]ccc56)nc4C(N)=O)cc3)CC2)CC1 [compound 594] | +++ (+++ indicates an inhibition greater than 50%.) | > 50 | 13 | 70 | –
18 | CN1CCN(C2CCN(c3ccc(Nc4nc(NC5CS(=O)(=O)C5)c(-c5ccccc5)nc4C(N)=O)cc3)CC2)CC1 [compound 126] | + (+ indicates an inhibition less than or equal to 20%) | ≤ 20 | 248 | 2600 | –
19 | CN1CCC(c2ccc(Nc3nc(NC4CCOCC4)c(-c4ccncc4)nc3C(N)=O)cc2)CC1 [compound 121] | +++ (+++ indicates an inhibition greater than 50%.) | > 50 | 70 | 590 | –
20 | CN1CCN(C2CCN(c3ccc(Nc4nc(NC5CCOCC5)c(-c5ccccn5)nc4C(N)=O)cc3)CC2)CC1 [compound 38] | – | 20 to 50 | 48 | 1800 | –
21 | COC1CCC(Nc2nc(Nc3ccc(N4CCC(N5CCN(C)CC5)CC4)cc3)c(C(N)=O)nc2-c2ccccc2)C1 (stereo not drawn) [compound 35] | ++ (++ indicates an inhibition from 20% to 50%) | ≤ 20 | 54 | 480 | –
22 | CCc1nc(C(N)=O)c(Nc2ccc(N3CCC(N4CCN(C)CC4)CC3)c(OC)c2)nc1NC1CCOCC1 [Gilteritinib, gilteritinib, reference compound] | – | ≤ 20 | > 500 | – | –
23 | CN1CCN(C2CCN(c3ccc(Nc4nc(NC5CCOCC5)c(-c5cccc(F)c5)nc4C(N)=O)cc3)CC2)CC1 [compound 60] | ++ (++ indicates an inhibition from 20% to 50%) | ≤ 20 | – | – | –

Reference: patent US12600714B2, “Substituted pyrazinecarboxamide compounds for treating diseases related to EGFR mutation” (WIGEN BIOMEDICINE TECHNOLOGY (SHANGHAI) CO., LTD., priority 2020, dated 2026)
